The values that follow come from ChEMBL document CHEMBL1136813, “Bivalent biogenic amine reuptake inhibitors” (Bioorg Med Chem Lett, 2003).

The target of assay [1] is T1, Sodium-dependent serotonin transporter (Homo sapiens, UniProt P31645). In words: Compound was tested for inhibition of [3H]5-HT binding to Serotonin transporter in HEK cells. The format is cell-based, HEK293.
Target sequence in this assay (P31645 whole entry): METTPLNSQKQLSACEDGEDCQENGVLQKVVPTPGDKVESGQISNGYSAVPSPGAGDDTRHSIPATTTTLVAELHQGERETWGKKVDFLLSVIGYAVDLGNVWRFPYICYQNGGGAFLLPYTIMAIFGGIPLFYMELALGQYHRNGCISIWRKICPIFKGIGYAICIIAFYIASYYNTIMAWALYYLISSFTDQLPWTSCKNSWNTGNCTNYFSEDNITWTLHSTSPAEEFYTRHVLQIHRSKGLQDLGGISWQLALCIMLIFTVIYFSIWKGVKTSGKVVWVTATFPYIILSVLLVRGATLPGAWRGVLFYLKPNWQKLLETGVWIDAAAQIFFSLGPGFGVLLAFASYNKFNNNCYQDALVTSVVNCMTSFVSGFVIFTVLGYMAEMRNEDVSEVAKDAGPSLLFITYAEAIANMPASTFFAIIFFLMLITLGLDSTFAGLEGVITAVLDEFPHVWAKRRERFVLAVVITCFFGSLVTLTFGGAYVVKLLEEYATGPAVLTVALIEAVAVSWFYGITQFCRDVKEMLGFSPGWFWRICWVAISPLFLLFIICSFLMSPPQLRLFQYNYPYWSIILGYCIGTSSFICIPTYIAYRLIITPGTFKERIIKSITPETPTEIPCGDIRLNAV
Assay [2] has as its target T1, Sodium-dependent serotonin transporter. In words: Compound was tested for inhibition of [125I]RTI-55 binding to Serotonin transporter in HEK cells. The format is cell-based, HEK293.
Target sequence in this assay (P31645 whole entry): as above
Assay [3] shares this target. Kind of assay: Ratio of uptake inhibition to binding affinity to human SERT (IC50/Ki).
Target sequence in this assay (P31645 whole entry, looked up): as the sequence (P31645 whole entry) above
For assay [4], the target named is T2, Sodium-dependent noradrenaline transporter (Homo sapiens, UniProt P23975). Kind of assay: Compound was tested for inhibition of [125I]-RTI-55 binding to norepinephrine transporter HEK cells. It is filed as cell-based, HEK293.
Assay [5] concerns the target T2, Sodium-dependent noradrenaline transporter. Kind of assay: Compound was tested for inhibition of [3H]NE binding to norepinephrine transporter HEK cells. The format is cell-based, HEK293.
The target is the same in assay [6]. In words: Ratio of uptake inhibition to binding affinity to human NET (IC50/Ki).
The target of assay [7] is T3, Sodium-dependent dopamine transporter (Homo sapiens, UniProt Q01959). Kind of assay: Compound was tested for inhibition of [3H]DA binding to dopamine (DAT) transporter in HEK cells. The format is cell-based, HEK293.
For assay [8], the target named is T3, Sodium-dependent dopamine transporter. Kind of assay: Ratio of uptake inhibition to binding affinity to human DAT (IC50/Ki).
For assay [9] the target is unchanged. In words: Compound was tested for inhibition of [125I]RTI-55 binding to dopamine transporter in HEK cells. The format is cell-based, HEK293.

T3 sequence (Q01959 whole entry): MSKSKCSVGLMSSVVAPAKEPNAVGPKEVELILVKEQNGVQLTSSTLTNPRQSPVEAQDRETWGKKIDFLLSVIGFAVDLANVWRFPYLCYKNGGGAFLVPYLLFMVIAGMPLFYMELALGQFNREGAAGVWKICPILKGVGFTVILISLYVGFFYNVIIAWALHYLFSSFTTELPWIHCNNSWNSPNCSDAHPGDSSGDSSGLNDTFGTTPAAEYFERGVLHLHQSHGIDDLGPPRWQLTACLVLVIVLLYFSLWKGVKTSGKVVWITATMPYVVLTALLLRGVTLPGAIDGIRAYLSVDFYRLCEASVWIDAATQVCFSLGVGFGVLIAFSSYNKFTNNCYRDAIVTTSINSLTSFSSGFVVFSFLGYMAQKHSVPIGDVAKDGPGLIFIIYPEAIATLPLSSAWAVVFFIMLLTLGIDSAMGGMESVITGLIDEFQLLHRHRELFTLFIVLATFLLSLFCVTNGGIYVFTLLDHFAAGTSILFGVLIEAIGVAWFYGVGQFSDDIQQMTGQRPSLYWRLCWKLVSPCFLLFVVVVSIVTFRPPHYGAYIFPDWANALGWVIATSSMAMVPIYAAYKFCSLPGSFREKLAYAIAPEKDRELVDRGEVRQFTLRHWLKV
T2 sequence (P23975 whole entry): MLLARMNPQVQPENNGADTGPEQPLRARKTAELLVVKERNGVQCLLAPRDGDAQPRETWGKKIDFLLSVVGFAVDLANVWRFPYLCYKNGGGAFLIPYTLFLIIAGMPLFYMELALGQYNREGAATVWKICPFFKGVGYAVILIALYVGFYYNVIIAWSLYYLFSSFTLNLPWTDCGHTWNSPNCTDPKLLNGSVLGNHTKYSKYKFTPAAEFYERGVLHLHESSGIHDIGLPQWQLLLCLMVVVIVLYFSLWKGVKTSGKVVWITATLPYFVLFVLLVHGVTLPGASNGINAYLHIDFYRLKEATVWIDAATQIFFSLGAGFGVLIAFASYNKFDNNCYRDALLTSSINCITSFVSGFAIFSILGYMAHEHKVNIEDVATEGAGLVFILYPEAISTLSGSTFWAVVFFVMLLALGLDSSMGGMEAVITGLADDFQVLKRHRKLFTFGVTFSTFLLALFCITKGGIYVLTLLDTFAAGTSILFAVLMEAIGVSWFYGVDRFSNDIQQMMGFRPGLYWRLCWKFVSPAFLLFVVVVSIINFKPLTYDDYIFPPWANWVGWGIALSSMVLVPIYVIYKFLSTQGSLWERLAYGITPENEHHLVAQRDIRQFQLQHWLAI

For `CN1C2CCC1C(C(=O)NCCCCNC(=O)C1C(c3ccc(Cl)cc3)CC3CCC1N3C)C(c1ccc(Cl)cc1)C2` (configuration not stated), the IC50 in [1] is 176 nM; in [5] it was 2260 nM; in [7] it was 1670 nM. Besides, the Ki is 3140 nM in assay [2], 2070 nM in [4] and 21.7 nM in assay [9]. Besides, the Ratio in assay [3] stood at 0.06; in assay [6] it was 1.09; in assay [8] it was 76.8.

In the case of `COC(=O)C1C(c2ccc(Cl)cc2)CC2CCC1N2C` (configuration not stated), the half-inhibitory concentration (IC50) in [7] stood at 1.7 nM. The molecule also had a Ki in assay [9] of 1.1 nM.

Consider `CN1C2CCC1C(C(=O)NCCCCCCCCNC(=O)C1C(c3ccc(Cl)cc3)CC3CCC1N3C)C(c1ccc(Cl)cc1)C2` (configuration not stated), for which the IC50 in [1] is 99 nM; in [5], 487 nM; in assay [7] it was 871 nM. In addition, the Ki worked out at 7.9 nM in assay [2], 830 nM in [4] and 6.7 nM in assay [9]. Besides, the figures for the Ratio in assay [3] and in assay [8] were 12.5 and 130, respectively.

For the molecule `CN1C2CCC1C(C(=O)NCCCCCCNC(=O)C1C(c3ccc(Cl)cc3)CC3CCC1N3C)C(c1ccc(Cl)cc1)C2` (configuration not stated), the IC50 in assay [1] was 225 nM; in assay [5] it was 1850 nM; in [7], 1400 nM. Further, the inhibition constant (Ki) amounted to 102 nM in assay [2], 330 nM in assay [4] and 18.4 nM in assay [9]. Also, the Ratio in [3] is 2.2; in assay [6], 5.59; in [8], 76.3.

`CN1C2CCC1C(C(=O)NCCCNC(=O)C1C(c3ccc(Cl)cc3)CC3CCC1N3C)C(c1ccc(Cl)cc1)C2` (configuration not stated): the concentration for half-maximal inhibition (IC50) in assay [1] is 441 nM; in assay [5], 266 nM; in assay [7], 52.2 nM. Moreover, the Ki in [2] came to 357 nM; in [4], 2970 nM; in [9], 65.1 nM. Besides, the Ratio in assay [3] came to 1.17; in assay [6], 0.09; in assay [8] it was 0.8.
